One assay has as its system SH-SY5Y cells. In words: In vitro α-tubulin acetylation in undifferentiated SH-SY5Y cells. The settings on record: overnight, @1uM. Type of assay: cell-based. As to the method: SH-SY5Y cells (ATCC, cod. CRL-2266) are plated in optical optimized 96-well black plates (Perkin Elmer, cod. 6055302) at 5000 cells/well in 100 μl/well of growth medium (DMEM/F12 (1:1)+10 mM hepes+100 units/mL of penicillin+100 μg/mL of streptomycin+10% of inactivated Foetal calf serum (FCS, Hyclone)).
After 24 h of seeding, cells are incubated overnight with the selected molecules at 0.1-1-10 μM. ACY1083 and Tubastatin A, at the same doses, are tested as positive controls of α-Tubulin acetylation, while untreated cells are incubated with 0.01% DMSO and indicated as CTRL DMSO.
At the end of the incubation, cells are fixed adding 100 μL/well of formaldehyde 8% in PBS (final formaldehyde concentration 4% in 200 μL/well) directly in the 100 μL/well of medium, for 30 min at RT. The fixing solution is carefully removed, and wells are washed twice with PBS for 10 min each. Fixed cells are kept in PBS at 4° C. until staining.
The day of the staining experiment, the fixed cells are incubated 60 min with the blocking buffer (PBS with 5% FCS+0.3% Triton™ X-100). While blocking, primary antibodies are prepared by diluting 1:200 the α-Tubulin Alexa Fluor 488 Conjugate (Cell Signaling, cod. 5063) antibody and 1:50 Acetyl-α-Tubulin Alexa Fluor 647 Conjugate (Cell Signaling, cod. 81502) antibody in the Antibody Dilution Buffer (PBS with 1% BSA+0.3% Triton™ X-100). Once the blocking solution is aspirated, the diluted primary antibodies are applied and incubated overnight at 4° C. The next day, cells are rinsed twice with PBS (10 min each), incubated 5 min with 300 nM DAPI in PBS, and then rinsed twice with PBS (10 min each). For each treatment, 3 wells are stained.
Images of the stained cells are acquired by means of the IN Cell Analyzer 2500 HS Instrument, using: far red channel for Acetyl-α-Tubulin staining (exposure 0.02 sec), green channel for α-Tubulin staining (exposure 0.02 sec), and blue channel for DAPI (nuclei) staining. For each well, 10 images are acquired.
Images of stained cells are analysed with the InCarta software (Molecular Devices) for obtaining fluorescence intensity considering whole cells. For each treatment, mean values of Cell intensity—Bckg (Cell), for both staining, are obtained using the InCarta raw data by FOV (Field of View). Results are expressed as fold increase of the ratio of acetylated tubulin and total tubulin towards control (CTRL DMSO).

For assay [1], the system named is human B cell precursor leukemia 697. In words: In vitro α-tubulin acetylation in 697 cell line. The assay is classed as cell-based. The settings on record: read-out: TubAc 697 cells EC50. As for the experimental part:
The in vitro α-tubulin acetylation was evaluated on human B cell precursor leukemia 697.
The 697 cells were maintained in RPMI Medium 1640 (Gibco, cat: 21875-034) supplemented with 10 mM HEPES (Gibco, cat: 15630-080), Pen-Strep (Penicillin 100 U/ml, Streptomycin 100 μg/ml, Gibco, cat: 15140-122) and 10% fetal bovine serum (Gibco, cat: 10270-106).
The cells were plated in 12-well plates (Costar, cat: 3512) at the density of 5.5×10^5 cells/ml.
Serial dilutions of test compounds in DMSO were prepared using 20 mM stock solutions to obtain 8 doses 200× concentrated in respect to final doses (2.7-100000 nM). Then the DMSO solutions were diluted 10× in culture medium to obtain 20× concentrated solutions which were used for cells treatment (125 μl of medium solutions were added to 2.375 ml of cells suspension). The final DMSO content was set as 0.5%. The plates were incubated at 37° C., 5% CO2 for 16 hours.
At the end of the incubation period, the cells were harvested and centrifuged for 5 minutes at 200×g and washed with 0.9% NaCl at 4° C. The resulting pellet was treated for 30 minutes at 4° C. with 100 μl Complete Lysis-M buffer containing protease inhibitors (Complete Lysis-M Roche+Complete Tablets, Mini Easypack, cat: 4719956001) and phosphatase inhibitor cocktails (PhosStop Easypack, Roche, cat: 4906837001) and then centrifuged 10 minutes at 18213×g. The protein concentration in each supernatant was determined using BCA Protein Assay Kit (Pierce, cat: 23227). The samples were diluted in PBS 1× to obtain 2 μg/ml concentration and coated in MaxiSorp 96-well plates (Nunc, cat: 442404). The plates were incubated overnight at room temperature.
Plates were washed twice with Wash Buffer (PBS 1×+0.005% tween 20) and saturated for 1 hour at room temperature with 300 μL of 1×PBS containing 10% FBS. After washing twice with Wash Buffer, the plates were incubated for 2 hours at room temperature in the presence of 100 μl/well either anti-acetylated-α-tubulin antibody (Monoclonal Anti-Tubulin, Acetylated antibody produced in mouse, Sigma-Aldrich, cat: T6793) or total anti-α-tubulin antibody (Monoclonal Anti-α-Tubulin produced in mouse, Sigma-Aldrich, cat: T6074) diluted 1:1000 in 1×PBS containing 10% FBS. Following 5 washing cycles with Wash Buffer the secondary antibody conjugated with the enzyme HRP (Goat anti-Mouse IgG, IgM, IgA (H+L), stock concentration 0.5 mg/ml, Thermo Fisher Scientific, cat: A10668), diluted 1:1000 in 1×PBS+10% FBS was added at the volume of 100 μl/well. After two hours of incubation at room temperature the plates were washed 4 times with Wash Buffer, then 100 μl/well of TMB substrate (TMB substrate kit, Thermo Fisher Scientific, cat: 34021) was added for 10 minutes at room temperature in the dark. The reaction was stopped by adding 50 μl of 2M H2SO4. The plates were read in BioTek Synergy H1 multimode microplate reader at a wavelength of 450 nm.
The measured absorbance was corrected by subtracting the mean of blank values (samples without the primary antibody). The absorbance ratios of acetyl to total tubulin assays were calculated and normalized to the reference compound (positive control) 4 parameter logistic curve, where 0% is the fitted bottom and 100% is the fitted top of the curve. The results are expressed as relative EC50.

Where two headings read alike, the source gives them in different places.

Here are results for nine compounds from patent US20260049078A1, “DIFLUORO- AND TRIFLUORO-ACETYL HYDRAZIDES AS SELECTIVE HDAC6 INHIBITORS” (ITALFARMACO S.P.A., priority 2022, published 2026).

Take `FC(F)c1nnc(-c2ccc(Cn3cc(-c4ccc(NC5=NCCN5)cc4)nn3)cc2)o1` [Compound 1-A]: the “TubAc SH-SY5Y cells fold increase of the ratio of acetylated tubulin and total tubulin towards control” value in the assay on SH-SY5Y cells is 2 fold. Moreover, the concentration giving a half-maximal response (EC50) in assay [1] (Homo sapiens, B-cell, 16 h) is 0.585 µM.
As for `Nc1nc2ccc(-c3cn(Cc4ccc(-c5nnc(C(F)F)o5)cc4F)nn3)cc2s1` [Compound 2-A], the “TubAc SH-SY5Y cells fold increase of the ratio of acetylated tubulin and total tubulin towards control” value in the assay on SH-SY5Y cells was 6.2 fold. Also, the 50% effective concentration (EC50) in assay [1] (Homo sapiens, B-cell, 16 h) was determined as 0.13 µM.
Turning to `FC(F)c1nnc(-c2ccc(Cn3cc(-c4ccccc4)nn3)nc2)o1` [Compound 13-A], the 50% effective concentration (EC50) in assay [1] (Homo sapiens, B-cell, 16 h) was determined as 0.505 µM.
For `Fc1ccccc1-c1cn(Cc2ccc(-c3nnc(C(F)F)o3)cn2)nn1` [Compound 14-A], the “TubAc SH-SY5Y cells fold increase of the ratio of acetylated tubulin and total tubulin towards control” value in the assay on SH-SY5Y cells stood at 6.3 fold. Moreover, the EC50 in assay [1] (Homo sapiens, B-cell, 16 h) came out at 0.476 µM.
For the compound `FC(F)c1nnc(-c2ccc(Cn3cc(-c4ccccn4)nn3)nc2)o1` [Compound 20-A], the EC50 in assay [1] (Homo sapiens, B-cell, 16 h) was 1.21 µM.
Consider `Nc1nc2ccc(-c3cn(Cc4ccc(-c5nnc(C(F)F)o5)cc4)nn3)cc2s1` [Compound 32-A], for which the “TubAc SH-SY5Y cells fold increase of the ratio of acetylated tubulin and total tubulin towards control” value in the assay on SH-SY5Y cells amounted to 6.3 fold. Also, the concentration giving a half-maximal response (EC50) in assay [1] (Homo sapiens, B-cell, 16 h) was found to be 0.085 µM.
For `Nc1nc2ccc(-c3cn(Cc4ccc(-c5nnc(C(F)F)o5)cc4Cl)nn3)cc2s1` [Compound 37-A], the “TubAc SH-SY5Y cells fold increase of the ratio of acetylated tubulin and total tubulin towards control” value in the assay with SH-SY5Y cells was found to be 6 fold. Besides, in assay [1] (Homo sapiens, B-cell, 16 h), the 50% effective concentration (EC50) is 0.065 µM.
Consider `Nc1nc2ccc(-c3cn(Cc4ccc(-c5nnc(C(F)F)o5)cn4)nn3)cc2s1` [Compound 38-A], for which the “TubAc SH-SY5Y cells fold increase of the ratio of acetylated tubulin and total tubulin towards control” value in the assay on SH-SY5Y cells is given as 10 fold. The EC50 in assay [1] (Homo sapiens, B-cell, 16 h) came out at 0.076 µM.
For the compound `Nc1nc2ccc(C3CN(Cc4ccc(C(=O)NNC(=O)C(F)F)s4)N=N3)cc2s1` (stereo not shown) [Compound 48-A], in the assay on SH-SY5Y cells, the “TubAc SH-SY5Y cells fold increase of the ratio of acetylated tubulin and total tubulin towards control” value amounted to 15.7 fold. Besides, in assay [1] (697 cells, 16 hours, relative EC50), the EC50 was 0.0075 µM.
